Data taken from patent US20230151025A1, “SUBSTITUTED THIAZOLOPYRIDINES, SALTS THEREOF AND THEIR USE AS HERBICIDALLY ACTIVE SUBSTANCES” (Bayer Aktiengesellschaft, priority 2020, published 2023).

Test system: Digitaria sanguinalis (DIGSA)
Test: Herbicidal post-emergence action (B), 1280 g/ha
Assay type: in vivo
Conditions: rated visually after about 3 weeks vs untreated controls
Outline: (§1)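 Post-emergence greenhouse test: weeds in sandy loam treated at the one-leaf stage, 2 to 3 weeks after sowing, with WP or EC formulations plus 0.5% additive at 600 l/ha water. Visual activity versus untreated controls after about 3 weeks (100% = dead, 0% = like control).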

Row | SMILES | herbicidal activity DIGSA
1 | Fc1ccccc1-c1nc2ncsc2cc1C1CC1 [Example I-102] | 100%
2 | Cc1cc2scnc2nc1-c1ccc(F)cc1F [Example I-122] | 100%

Test system: Amaranthus retroflexus (AMARE)
Test: Herbicidal post-emergence action (B), 1280 g/ha
Assay type: in vivo
Conditions: rated visually after about 3 weeks vs untreated controls
Outline: as §1

Row | SMILES | herbicidal activity AMARE
3 | Fc1ccccc1-c1nc2ncsc2cc1C1CC1 [Example I-102] | 100%
4 | Cc1cc2scnc2nc1-c1ccc(F)cc1F [Example I-122] | 100%

Test system: Echinochloa crus-galli (ECHCG)
Test: Herbicidal post-emergence action (B), 1280 g/ha
Assay type: in vivo
Conditions: rated visually after about 3 weeks vs untreated controls
Outline: as §1

Row | SMILES | herbicidal activity ECHCG
5 | Fc1ccccc1-c1nc2ncsc2cc1C1CC1 [Example I-102] | 100%
6 | Cc1cc2scnc2nc1-c1ccc(F)cc1F [Example I-122] | 90%

Test system: Stellaria media (STEME)
Test: Herbicidal post-emergence action (B), 1280 g/ha
Assay type: in vivo
Conditions: not given
Outline: as §1

Row | SMILES | herbicidal effect STEME
7 | Fc1ccccc1-c1nc2ncsc2cc1C1CC1 [Example I-102] | 100%
8 | Cc1cc2scnc2nc1-c1ccc(F)cc1F [Example I-122] | 100%

Test system: Veronica persica (VERPE)
Test: Herbicidal post-emergence action (B), 1280 g/ha
Assay type: in vivo
Conditions: not given
Outline: as §1

Row | SMILES | herbicidal effect VERPE
9 | Fc1ccccc1-c1nc2ncsc2cc1C1CC1 [Example I-102] | 100%
10 | Cc1cc2scnc2nc1-c1ccc(F)cc1F [Example I-122] | 100%

Test system: Amaranthus retroflexus (AMARE)
Test: Herbicidal pre-emergence action (C), 320 g/ha
Assay type: in vivo
Conditions: ca. 3 weeks
Outline: (§2)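 Sandy loam pots, seeds covered with soil → WP/EC compound sprayed on soil surface (aq., +0.5% additive, 600 l/ha) → greenhouse, optimum growth → visual herbicidal effect (%) at ca. 3 wk vs untreated.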

Row | SMILES | herbicidal effect AMARE
11 | Fc1ccccc1-c1nc2ncsc2cc1C1CC1 [Example I-102] | 90%
12 | Cc1cc2scnc2nc1-c1ccc(F)cc1F [Example I-122] | 90%

Test system: Echinochloa crus-galli (ECHCG)
Test: Herbicidal pre-emergence action (C), 320 g/ha
Assay type: in vivo
Conditions: ca. 3 weeks
Outline: as §2

Row | SMILES | herbicidal effect ECHCG
13 | Fc1ccccc1-c1nc2ncsc2cc1C1CC1 [Example I-102] | 100%
14 | Cc1cc2scnc2nc1-c1ccc(F)cc1F [Example I-122] | 100%

Test system: Alopecurus myosuroides (ALOMY)
Test: Herbicidal pre-emergence action (C), 320 g/ha
Assay type: in vivo
Conditions: ca. 3 weeks
Outline: as §2

Row | SMILES | herbicidal effect ALOMY
15 | Fc1ccccc1-c1nc2ncsc2cc1C1CC1 [Example I-102] | 90%
16 | Cc1cc2scnc2nc1-c1ccc(F)cc1F [Example I-122] | 100%

Test system: Lolium rigidum (LOLRI)
Test: Herbicidal pre-emergence action (C), 320 g/ha
Assay type: in vivo
Conditions: ca. 3 weeks
Outline: as §2

Row | SMILES | herbicidal effect LOLRI
17 | Fc1ccccc1-c1nc2ncsc2cc1C1CC1 [Example I-102] | 100%
18 | Cc1cc2scnc2nc1-c1ccc(F)cc1F [Example I-122] | 100%

Test system: Setaria viridis (SETVI)
Test: Herbicidal pre-emergence action (C), 320 g/ha
Assay type: in vivo
Conditions: ca. 3 weeks
Outline: as §2

Row | SMILES | herbicidal effect SETVI
19 | Fc1ccccc1-c1nc2ncsc2cc1C1CC1 [Example I-102] | 100%
20 | Cc1cc2scnc2nc1-c1ccc(F)cc1F [Example I-122] | 100%

Test system: Veronica persica (VERPE)
Test: Herbicidal pre-emergence action (C), 320 g/ha
Assay type: in vivo
Conditions: ca. 3 weeks
Outline: as §2

Row | SMILES | herbicidal effect VERPE
21 | Fc1ccccc1-c1nc2ncsc2cc1C1CC1 [Example I-102] | 80%
22 | Cc1cc2scnc2nc1-c1ccc(F)cc1F [Example I-122] | 90%

Test system: Digitaria sanguinalis (DIGSA)
Test: Herbicidal pre-emergence action (C), 320 g/ha
Assay type: in vivo
Conditions: ca. 3 weeks
Outline: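 Weed and crop seeds sown in sandy loam; WP or EC formulations applied pre-emergence to the soil surface as aqueous suspension/emulsion with 0.5% additive at 600 l water/ha. Greenhouse-grown under optimum conditions; damage visually scored after ca. 3 weeks versus untreated controls (0% = as control, 100% = plants dead).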

Row | SMILES | herbicidal effect DIGSA
23 | Cc1cc2scnc2nc1-c1ccc(F)cc1F [Example I-122] | 100%

Test system: Digitaria sanguinalis (DIGSA)
Test: Herbicidal pre-emergence action (A), 1280 g/ha
Assay type: in vivo
Conditions: visual grading after ca. 3 weeks vs untreated controls, 100% = plants have died off, 0% = as control plants
Outline: (§3)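 Pre-emergence greenhouse test: seeds sown in sandy loam pots, WP or EC formulations sprayed onto covering soil as aqueous suspension/emulsion with 0.5% additive at 600 l water/ha. Damage graded visually after ca. 3 weeks versus untreated controls, 0% = as control, 100% = plants dead.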

Row | SMILES | DIGSA, herbicidal effect in percent (%)
24 | Fc1ccccc1-c1nc2ncsc2cc1C1CC1 [Example I-102] | 100%
25 | Cc1cc2scnc2nc1-c1ccc(F)cc1F [Example I-122] | 100%

Test system: Amaranthus retroflexus (AMARE)
Test: Herbicidal pre-emergence action (A), 1280 g/ha
Assay type: in vivo
Conditions: visual grading after ca. 3 weeks vs untreated controls
Outline: as §3

Row | SMILES | herbicidal effect AMARE
26 | Fc1ccccc1-c1nc2ncsc2cc1C1CC1 [Example I-102] | 90%
27 | Cc1cc2scnc2nc1-c1ccc(F)cc1F [Example I-122] | 100%

Test system: Abutilon theophrasti (ABUTH)
Test: Herbicidal pre-emergence action (A), 1280 g/ha
Assay type: in vivo
Conditions: visual grading after ca. 3 weeks vs untreated controls, 100% = plants have died off, 0% = as control plants
Outline: as §3

Row | SMILES | ABUTH, herbicidal effect in percent (%)
28 | Fc1ccccc1-c1nc2ncsc2cc1C1CC1 [Example I-102] | 90%
29 | Cc1cc2scnc2nc1-c1ccc(F)cc1F [Example I-122] | 100%

Test system: Echinochloa crus-galli (ECHCG)
Test: Herbicidal pre-emergence action (A), 1280 g/ha
Assay type: in vivo
Conditions: visual grading after ca. 3 weeks vs untreated controls, 100% = plants have died off, 0% = as control plants
Outline: as §3

Row | SMILES | ECHCG, herbicidal effect in percent (%)
30 | Fc1ccccc1-c1nc2ncsc2cc1C1CC1 [Example I-102] | 100%
31 | Cc1cc2scnc2nc1-c1ccc(F)cc1F [Example I-122] | 100%

Test system: Kochia scoparia (KCHSC; Bassia scoparia)
Test: Herbicidal pre-emergence action (A), 1280 g/ha
Assay type: in vivo
Conditions: visual grading after ca. 3 weeks vs untreated controls
Outline: as §3

Row | SMILES | herbicidal effect KCHSC
32 | Fc1ccccc1-c1nc2ncsc2cc1C1CC1 [Example I-102] | 100%
33 | Cc1cc2scnc2nc1-c1ccc(F)cc1F [Example I-122] | 100%

Test system: Stellaria media (STEME)
Test: Herbicidal pre-emergence action (A), 1280 g/ha
Assay type: in vivo
Conditions: visual grading after ca. 3 weeks vs untreated controls
Outline: as §3

Row | SMILES | herbicidal effect STEME
34 | Fc1ccccc1-c1nc2ncsc2cc1C1CC1 [Example I-102] | 90%
35 | Cc1cc2scnc2nc1-c1ccc(F)cc1F [Example I-122] | 100%

Test system: Alopecurus myosuroides (ALOMY)
Test: Herbicidal pre-emergence action (A), 1280 g/ha
Assay type: in vivo
Conditions: visual grading after ca. 3 weeks vs untreated controls, 100% = plants have died off, 0% = as control plants
Outline: as §3

Row | SMILES | ALOMY, herbicidal effect in percent (%)
36 | Fc1ccccc1-c1nc2ncsc2cc1C1CC1 [Example I-102] | 100%
37 | Cc1cc2scnc2nc1-c1ccc(F)cc1F [Example I-122] | 100%

Test system: Matricaria inodora (MATIN)
Test: Herbicidal pre-emergence action (A), 1280 g/ha
Assay type: in vivo
Conditions: visual grading after ca. 3 weeks vs untreated controls
Outline: as §3

Row | SMILES | herbicidal effect MATIN
38 | Fc1ccccc1-c1nc2ncsc2cc1C1CC1 [Example I-102] | 100%
39 | Cc1cc2scnc2nc1-c1ccc(F)cc1F [Example I-122] | 100%

Test system: Lolium rigidum (LOLRI)
Test: Herbicidal pre-emergence action (A), 1280 g/ha
Assay type: in vivo
Conditions: visual grading after ca. 3 weeks vs untreated controls, 100% = plants have died off, 0% = as control plants
Outline: as §3

Row | SMILES | LOLRI, herbicidal effect in percent (%)
40 | Fc1ccccc1-c1nc2ncsc2cc1C1CC1 [Example I-102] | 100%
41 | Cc1cc2scnc2nc1-c1ccc(F)cc1F [Example I-122] | 100%

Test system: Setaria viridis (SETVI)
Test: Herbicidal pre-emergence action (A), 1280 g/ha
Assay type: in vivo
Conditions: visual grading after ca. 3 weeks vs untreated controls
Outline: as §3

Row | SMILES | herbicidal effect SETVI
42 | Fc1ccccc1-c1nc2ncsc2cc1C1CC1 [Example I-102] | 100%
43 | Cc1cc2scnc2nc1-c1ccc(F)cc1F [Example I-122] | 100%

Test system: Poa annua (POAAN)
Test: Herbicidal pre-emergence action (A), 1280 g/ha
Assay type: in vivo
Conditions: visual grading after ca. 3 weeks vs untreated controls, 100% = plants have died off, 0% = as control plants
Outline: as §3

Row | SMILES | POAAN, herbicidal effect in percent (%)
44 | Fc1ccccc1-c1nc2ncsc2cc1C1CC1 [Example I-102] | 100%
45 | Cc1cc2scnc2nc1-c1ccc(F)cc1F [Example I-122] | 100%

Test system: Veronica persica (VERPE)
Test: Herbicidal pre-emergence action (A), 1280 g/ha
Assay type: in vivo
Conditions: visual grading after ca. 3 weeks vs untreated controls
Outline: as §3

Row | SMILES | herbicidal effect VERPE
46 | Fc1ccccc1-c1nc2ncsc2cc1C1CC1 [Example I-102] | 100%
47 | Cc1cc2scnc2nc1-c1ccc(F)cc1F [Example I-122] | 100%
